One series deals with H1299/PmR cells. As to the kind of experiment: MTT assay, viability of pemetrexed-resistant H1299/PmR cells. In kind it is cell-based. Conditions: Homo sapiens, NCI-H1299, 72 h, three days, read-out: IC50 against the viability. From the text: Human lung cancer cell lines (A549, H1299, H1993, H1944, H226B, H226Br, H460, H522, HCC15, and PC9), a diploid human lung fibroblast cell line (Wi38), and the Lewis lung carcinoma (LLC) cell line were purchased from the American Type Culture Collection (ATCC, Manassas, VA, USA) or kindly provided by Dr. John V. Heymach (MD Anderson Cancer Center, Houston, TX, USA). Human retinal pigment epithelial (RPE) cells were kindly provided by Dr. Jeong Hun Kim (College of Medicine, Seoul National University, Seoul, Republic of Korea). HT-22 cells were provided by Dr. Dong Gyu Jo (College of Pharmacy, Sungkyunkwan University, Suwon, Republic of Korea). Lung cancer cells were cultured in RPMI 1640 medium supplemented with 10% fetal bovine serum (FBS) and antibiotics (Welgene, Gyeongsan-si, Republic of Korea). LLC, HT-22, and Wi38 cells were maintained in DMEM supplemented with 10% FBS and antibiotics. RPE cells were maintained in DMEM/F12 supplemented with 10% FBS and antibiotics. […]
Cells were seeded into 96-well plates at a density of 1-2 × 10^3 cells/well and incubated for 24 h. […] The formazan products were dissolved in dimethyl sulfoxide (DMSO), and the absorbance was measured at 570 nm. […]
In general terms: Tetrazolium assays rely on reduction of a dye to a coloured formazan, in cell work by metabolically active cells.

The next series concerns HCC15 cells. As to the kind of experiment: MTT assay, viability of HCC15 cells. The format is cell-based. Conditions: Homo sapiens, 72 h, three days, read-out: IC50 against the viability. As for the experimental part: (§1) Cells were seeded into 96-well plates at a density of 1-2 × 10^3 cells/well and incubated for 24 h. Cells were treated with vehicle or various concentrations of test compounds for two (PC9 and PC9/ER cells) or three (other cells) days. Cells were further incubated with MTT solution (final concentration of 500 μg/mL) for 4 h at 37 °C. The formazan products were dissolved in dimethyl sulfoxide (DMSO), and the absorbance was measured at 570 nm. The data are presented as a percentage of the control group.

A further series has as its system NSCLC cells. In words: Transwell migration assay. The following applies: concentration-dependent, 8-12 h after treatment. In kind it is cell-based, human.
For another series, the system named is H460 cells. In words: MTT assay, viability of H460 cells. The format is cell-based. Conditions: Homo sapiens, NCI-H460, 72 h, three days, read-out: IC50 against the viability. As for the experimental part: as §1
The nature of the next series: Glucose tolerance test. The following applies: LL6-administered mice vs vehicle-treated mice. The format is in vivo. How it is done: Glucose tolerance tests were performed as described in the previously published literature.
The test system of a further series is AXL. In words: Western blot, phosphorylation of AXL in H1944 and A549 cells. In kind it is cell-based, human. Conditions: 2.5 μM. How it is done: (§2) Before harvesting, the cells were stimulated with 10% FBS for 20 min. Total cell lysates were prepared with modified radioimmunoprecipitation assay lysis buffer (50 mM Tris-HCl [pH 7.4], 150 mM NaCl, 1 mM EDTA, 0.25% sodium deoxycholate, 1% Triton X-100, 100 mM NaF, 5 mM Na3VO4, 1 mM PMSF, 1 μg/mL aprotinin, 1 μg/mL leupeptin, and 1 μg/mL pepstatin). Equal amounts of protein (20 μg) were subjected to 8% SDS-PAGE and electrically transferred onto polyvinylidene difluoride membranes (Bio-Rad Laboratories, Hercules, CA, USA). Membranes were blocked with blocking buffer (3% BSA in Tris-buffered saline containing 0.1% Tween-20 [TBST]) for 1 h at room temperature. The membranes were incubated with primary antibodies diluted in 3% BSA in TBST (1:1,000) overnight at 4 °C, washed multiple times with TBST, and incubated with secondary antibodies diluted in 3% nonfat dry milk in TBST (1:5,000) for 1 h at room temperature. The membranes were washed multiple times with TBST and visualized using an enhanced chemiluminescence detection kit (Thermo Fisher Scientific). Densitometric analysis was performed using ImageJ software.
Background: Immunoblotting shows a protein as a band on a membrane.

The subject of the next series is H1993 cells. In words: MTT assay, viability of H1993 cells. In kind it is cell-based. The following applies: Homo sapiens, NCI-H1993, 72 h, three days, read-out: IC50 against the viability. How it is done:
as §1

Series [1] deals with H1944 and A549 xenograft tumors. As to the kind of experiment: NSCLC xenograft tumor model. The format is in vivo, NOD/SCID mice. The following applies: 80 mg/kg. As for the experimental part: All animal experiments were performed according to protocols approved by the Seoul National University Institutional Animal Care and Use Committee. Mice were fed standard mouse chow and water ad libitum and housed in temperature- and humidity-controlled facilities with a 12-h light/12-h dark cycle. For xenograft experiments, H1944 and A549 cells (1×10^6 cells/spot, diluted in equal amounts of PBS and Matrigel) were subcutaneously injected into the right flank of 6-week-old non-obese diabetic-severe combined immunodeficiency (NOD/SCID) mice. After the tumor volume reached 50-150 mm^3, the mice were randomly grouped and treated with vehicle [10% DMSO in 60% polyethylene glycol (PEG) 400 solution] or LL6 (80 mg/kg) 6 days per week for 2 weeks. Tumor growth was determined by measuring the short and long diameters of the tumor with a caliper, and body weight was measured once or twice per week to monitor toxicity. Additionally, to evaluate the effect of LL6 on mutant Kras-driven lung tumorigenesis, 2-month-old Kras^G12D/+ transgenic mice were randomized and treated with vehicle or LL6 (80 mg/kg) for 8 weeks. The mice were euthanized, and tumor formation was evaluated and compared with that of the vehicle-treated control group. Microscopic evaluations of the H&E-stained lung tissue were also performed to measure mean tumor number (N) and volume (V) in a blinded fashion. The number and size of tumors were calculated in five sections uniformly distributed throughout each lung. In both animal experiments, the tumor volume and burden of each sample were calculated using the following formulas: Tumor volume (mm^3) = (short diameter)^2 × (long diameter) × 0.5; Tumor burden (mm^3) = number of tumors × the average of tumor volume.

A further series concerns Src. As to the kind of experiment: Western blot, phosphorylation of Src in H1944 and A549 cells. The format is cell-based, human. The following applies: 2.5 μM.
A short description of series [2]: MTT assay, viability of Wi38 human lung fibroblasts. The following applies: human, Wi38 lung fibroblasts; Wi38, 10 μM; read-out: percentage of cell viability. In kind it is cell-based. As for the experimental part: as §1
The test system of the next series is Wi38 cells. The description is as above. In kind it is cell-based. Conditions: WI-38, 72 h; Wi38 human lung fibroblasts, MTT assay, three days; read-out: IC50 against the viability. As for the experimental part: as §1
The test system of series [3] is H1944 and A549 NSCLC cells. As to the kind of experiment: Apoptosis (PARP cleavage, chromatin condensation, sub-G1 phase). The following applies: LL6 2.5 µM; LDB = linsitinib 2 µM, dasatinib 50 nM, bemcentinib 100 nM. In kind it is cell-based, human. How it is done: as §2

Description for Src: Before harvesting, the cells were stimulated with 10% FBS for 20 min. […] Equal amounts of protein (20 μg) were subjected to 8% SDS-PAGE and electrically transferred onto polyvinylidene difluoride membranes (Bio-Rad Laboratories, Hercules, CA, USA). Membranes were blocked with blocking buffer (3% BSA in Tris-buffered saline containing 0.1% Tween-20 [TBST]) for 1 h at room temperature. The membranes were incubated with primary antibodies diluted in 3% BSA in TBST (1:1,000) overnight at 4 °C, washed multiple times with TBST, and incubated with secondary antibodies diluted in 3% nonfat dry milk in TBST (1:5,000) for 1 h at room temperature. The membranes were washed multiple times with TBST and visualized using an enhanced chemiluminescence detection kit (Thermo Fisher Scientific). Densitometric analysis was performed using ImageJ software.

A word on the IC50: it is the midpoint of a concentration-inhibition curve. What is called viability is the share of living cells, or the viability signal relative to a control. As to `Nc1ncnc2c1c(-c1ccc(Cl)cc1)nn2CCn1cc(COc2ccc(Nc3nccc(Nc4cnc5ccccc5c4)n3)cc2)nn1` [LL6], the IC50 with H1299/PmR cells is 1.62 µM; in the series with HCC15 cells, 3.73 µM; in the series on H460 cells it was 3.43 µM; in the series on H1993 cells, 7.79 µM; in the series on Wi38 cells, more than 10 µM. Moreover, the “migration of NSCLC cells” value with NSCLC cells is reported as “effectively suppressed”. The glucose clearance result in the series “Glucose tolerance test” is given as “minimal difference”. Also, in the series on AXL, the “activation (phosphorylation) of AXL” value is “efficiently suppressed”. Also, the “tumor growth and weight” value in [1] (H1944 and A549 xenografts, 6 days per week for 2 weeks) is given as “significantly reduced”. Besides, in series [1] (Western blot of xenograft tumors), the “expression of phosphorylated IGF-1R and Src in tumors” value is recorded as “substantially suppressed”. Moreover, the body weight entry in series [1] (xenograft-bearing mice) is listed as “minimal changes”. Besides, the “activation (phosphorylation) of Src” value in the series on Src is on record as “efficiently suppressed”. Also, the viability at 3 days, 10 µM in series [2] was more than 60%. For the same molecule, in series [3], the “proapoptotic effects (PARP cleavage, chromatin condensation, sub-G1 phase)” value is recorded as “notably induced apoptosis”.

(Values after article PMC7778606, “Development of the phenylpyrazolo[3,4-d]pyrimidine-based, insulin-like growth factor receptor/Src/AXL-targeting small molecule kinase inhibitor” (Theranostics, 2021).)
